Measurements reported in the supplement of paper PMC8617591.

Assays:
[1] = system: Mycobacterium tuberculosis Erdman (autoluminescent); test: GRinf, maximum normalised growth rate inhibition (unitless (-1 to 1)); higher = less effect (negative = killing)
Method: (§1)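 DiaMOND equipotent two-drug combination dose responses against autoluminescent M. tuberculosis Erdman in 8 in vitro models. Read-out is OD600, or luminescence for the intracellular and dormancy models, normalised to untreated wells. Hill-fit Einf, AUC25 and GRinf are potency metrics; FIC50 and FIC90 are Loewe-additivity fractional inhibitory concentrations, given as log2 (negative = synergy). Replicates are averaged.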

[2] = system: Mycobacterium tuberculosis Erdman (autoluminescent); test: Einf, fitted maximum growth inhibition of combination (fraction); higher = stronger maximal inhibition
Method: as §1

[3] = system: Mycobacterium tuberculosis Erdman (autoluminescent); test: FIC50 (Loewe) at 50% inhibition (log2); higher = more antagonistic
Method: as §1

[4] = system: Mycobacterium tuberculosis Erdman (autoluminescent); test: FIC90 (Loewe) at 90% inhibition (log2); higher = more antagonistic
Method: as §1

[5] = system: Mycobacterium tuberculosis Erdman (autoluminescent); test: AUC25, normalised area under dose response up to IC25 (fraction (0-1)); higher = more potent at low dose
Method: as §1

CC(=O)NC[C@H]1CN(c2ccc(N3CCOCC3)c(F)c2)C(=O)O1 [linezolid] + CO[C@H]1/C=C/O[C@@]2(C)Oc3c(C)c(O)c4c(O)c(c(/C=N/N5CCN(C6CCCC6)CC5)c(O)c4c3C2=O)NC(=O)/C(C)=C\C=C\[C@H](C)[C@H](O)[C@@H](C)[C@@H](O)[C@@H](C)[C@H](OC(C)=O)[C@@H]1C [rifapentine]
Conditions	AUC25, [5]	Einf, [2]	FIC50, [3]	FIC90, [4]	GRinf, [1]
in vitro model: acidic pH 5.7, time point: constant (~7 days, model-specific)	0.0817	0.89	0.435	–	-0.248
in vitro model: acidic pH 5.7, time point: terminal (~4-5 doublings, model-specific)	0.0632	0.979	0.277	0.184	-0.205
in vitro model: intracellular J774, time point: constant = terminal	–	0.948	–	-0.637	-0.209

Conditions	AUC25, [5]	Einf, [2]	FIC50, [3]	FIC90, [4]	GRinf, [1]
in vitro model: butyrate, time point: constant (~7 days, model-specific)	0.0729	0.876	0.227	-0.305	0.113
in vitro model: butyrate, time point: terminal (~4-5 doublings, model-specific)	0.0445	0.934	0.0572	-0.553	0.0794
in vitro model: cholesterol 0.05 mM, time point: constant (~7 days, model-specific)	0.156	0.718	-0.52	–	-0.0866
in vitro model: cholesterol 0.05 mM, time point: terminal (~4-5 doublings, model-specific)	0.107	0.929	-0.0542	0.274	-0.162
in vitro model: cholesterol-high 0.2 mM, time point: constant (~7 days, model-specific)	0.109	0.966	-0.254	-0.688	-0.499
in vitro model: cholesterol-high 0.2 mM, time point: terminal (~4-5 doublings, model-specific)	0.103	1	0.0666	0.0759	-0.762
in vitro model: dormancy (butyrate + nitrate, low O2), time point: constant (~7 days, model-specific)	0.0497	0.908	0.552	0.666	0.107
in vitro model: dormancy (butyrate + nitrate, low O2), time point: terminal (~4-5 doublings, model-specific)	0.0324	0.979	0.585	0.484	-0.13
in vitro model: standard 7H9 glycerol, time point: constant = terminal	0.0541	0.927	0.266	0.154	-0.0203
in vitro model: valerate, time point: constant (~7 days, model-specific)	0.064	0.849	0.063	–	0.119
in vitro model: valerate, time point: terminal (~4-5 doublings, model-specific)	0.0448	0.935	0.198	0.078	0.0691
